The results in this text go back to ChEMBL document CHEMBL1201862, “PubChem BioAssay data set” (2004).

Structures are written as SMILES. Active and inactive are the calls of the source.

The target of one data set is T1, Coagulation factor XII (Homo sapiens, UniProt P00748).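 Note: activated factor XIIa alpha cleaving a fluorogenic AMC peptide substrate; inhibitor potency from loss of enzyme activity.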
T1 sequence (P00748 whole entry): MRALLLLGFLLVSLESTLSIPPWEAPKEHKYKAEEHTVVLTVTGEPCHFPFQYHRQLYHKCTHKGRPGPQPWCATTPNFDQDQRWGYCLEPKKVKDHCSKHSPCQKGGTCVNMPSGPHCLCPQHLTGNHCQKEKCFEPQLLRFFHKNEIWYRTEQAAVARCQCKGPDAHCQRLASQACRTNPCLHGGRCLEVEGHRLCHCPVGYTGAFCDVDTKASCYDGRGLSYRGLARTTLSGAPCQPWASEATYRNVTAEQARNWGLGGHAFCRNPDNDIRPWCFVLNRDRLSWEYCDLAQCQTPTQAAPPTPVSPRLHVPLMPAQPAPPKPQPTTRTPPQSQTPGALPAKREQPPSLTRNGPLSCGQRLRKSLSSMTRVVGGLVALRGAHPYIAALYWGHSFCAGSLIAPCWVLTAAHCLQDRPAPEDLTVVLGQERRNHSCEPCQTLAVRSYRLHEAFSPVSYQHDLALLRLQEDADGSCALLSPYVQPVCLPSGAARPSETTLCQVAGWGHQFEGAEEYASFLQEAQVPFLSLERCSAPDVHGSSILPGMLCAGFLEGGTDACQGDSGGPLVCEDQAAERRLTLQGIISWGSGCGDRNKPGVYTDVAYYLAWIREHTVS
Type of data set: functional.

Data set [1] addresses Dual specificity tyrosine-phosphorylation-regulated kinase 1A (Rattus norvegicus, UniProt Q63470). Type of data set: biochemical, Homo sapiens.
Another data set concerns the target Cytochrome P450 2C9 (Homo sapiens, UniProt P11712).
In a further data set the target is T2, Bcl-2-related protein A1 (Mus musculus, UniProt Q07440).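 Note: confirmatory dose–response counterscreen on Bfl-1, used to check hits from a UBC13 polyubiquitin inhibitor campaign.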
T2 sequence (Q07440 whole entry): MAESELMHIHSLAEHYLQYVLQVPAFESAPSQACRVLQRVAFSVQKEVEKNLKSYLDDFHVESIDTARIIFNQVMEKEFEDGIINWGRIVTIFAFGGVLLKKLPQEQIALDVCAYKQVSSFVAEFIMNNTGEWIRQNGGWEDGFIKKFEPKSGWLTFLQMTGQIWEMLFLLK
Type of data set: functional.

Data set [2] concerns the target T3, Ubiquitin-conjugating enzyme E2 N (Homo sapiens, UniProt P61088).
T3 sequence (P61088 whole entry): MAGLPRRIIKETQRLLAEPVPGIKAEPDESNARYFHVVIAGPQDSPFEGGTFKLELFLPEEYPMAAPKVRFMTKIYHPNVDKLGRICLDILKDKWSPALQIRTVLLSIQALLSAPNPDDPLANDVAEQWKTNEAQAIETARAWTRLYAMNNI
Type of data set: functional.

Data set [3] has as its target T3, Ubiquitin-conjugating enzyme E2 N. It counts as functional. The source holds these as a separate data set.
The target of a further data set is T4, Hexokinase (Trypanosoma brucei, UniProt Q38C41).
T4 sequence (Q38C41 whole entry): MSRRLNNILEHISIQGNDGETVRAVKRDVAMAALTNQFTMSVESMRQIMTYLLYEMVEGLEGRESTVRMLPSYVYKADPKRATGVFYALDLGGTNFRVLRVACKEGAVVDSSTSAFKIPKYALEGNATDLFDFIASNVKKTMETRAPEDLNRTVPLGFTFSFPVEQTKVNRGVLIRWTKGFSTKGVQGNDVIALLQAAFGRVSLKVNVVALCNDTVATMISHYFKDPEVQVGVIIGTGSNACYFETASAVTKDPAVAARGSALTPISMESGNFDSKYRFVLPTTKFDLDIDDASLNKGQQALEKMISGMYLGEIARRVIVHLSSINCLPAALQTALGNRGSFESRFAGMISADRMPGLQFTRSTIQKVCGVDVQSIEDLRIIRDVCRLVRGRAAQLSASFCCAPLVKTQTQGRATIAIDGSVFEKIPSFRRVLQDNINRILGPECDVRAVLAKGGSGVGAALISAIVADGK
Put plainly: Confirmation assay for inhibitors of Trypanosoma brucei hexokinase 1-Analogue-first series. [Related pubchem assays (depositor defined):AID1430, AID1632, AID2516, AID2560, AID2579, AID2600, AID449725, AID492951]. Type of data set: functional.

For data set [4], the target named is Peroxisome proliferator-activated receptor gamma/Nuclear receptor coactivator 1 (Homo sapiens, UniProt P37231). Briefly: TR-FRET dose response biochemical High Throughput Screening assay for agonists of the steroid receptor coactivator 1 (SRC-1) recruitment by the peroxisome proliferator-activated receptor gamma (PPAR gamma): non-selective agonists. [Related pubchem assays (depositor defined):AID1300, AID1808, AID504735, AID631]. Type of data set: protein assay.

The target in data set [5] is Peroxisome proliferator-activated receptor gamma/Nuclear receptor coactivator 3 (Homo sapiens, UniProt P37231). Put plainly: TR-FRET dose response biochemical High Throughput Screening assay for agonists of the steroid receptor coactivator 3 (SRC-3) recruitment by the peroxisome proliferator-activated receptor gamma (PPAR gamma): non-selective agonists. [Related pubchem assays: 1301 (Confirmation screen.), 1048 (Primary screen.)]. Type of data set: functional.

Data set [6] has as its target Peroxisome proliferator-activated receptor gamma/Nuclear receptor coactivator 2 (Homo sapiens, UniProt P37231). Put plainly: TR-FRET dose response biochemical High Throughput Screening assay for agonists of the steroid receptor coactivator 2 (SRC-2) recruitment by the peroxisome proliferator-activated receptor gamma (PPAR gamma): non-selective agonists. [Related pubchem assays: 1297, 1032 ]. Type of data set: functional.

In data set [7] the target is T5, Mannose-6-phosphate isomerase (Homo sapiens, UniProt P34949).
T5 sequence (P34949 whole entry): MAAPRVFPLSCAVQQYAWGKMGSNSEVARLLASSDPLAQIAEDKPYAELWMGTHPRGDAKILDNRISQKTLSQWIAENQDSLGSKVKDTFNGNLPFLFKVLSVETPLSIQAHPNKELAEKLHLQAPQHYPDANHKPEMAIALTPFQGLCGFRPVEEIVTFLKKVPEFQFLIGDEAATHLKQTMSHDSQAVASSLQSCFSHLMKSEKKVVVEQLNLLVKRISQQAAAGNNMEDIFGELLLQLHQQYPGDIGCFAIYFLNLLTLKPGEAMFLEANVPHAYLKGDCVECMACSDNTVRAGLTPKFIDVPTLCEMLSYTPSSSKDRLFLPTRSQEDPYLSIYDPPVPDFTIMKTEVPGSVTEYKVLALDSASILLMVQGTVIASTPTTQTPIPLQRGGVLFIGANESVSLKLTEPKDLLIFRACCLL
Put plainly: phosphomannose isomerase inhibition – biochemical, fluorescence intensity, confirmation (AID 1535).

Another data set concerns the target T6, Phosphomannomutase 2 (Homo sapiens, UniProt O15305).
T6 sequence (O15305 whole entry): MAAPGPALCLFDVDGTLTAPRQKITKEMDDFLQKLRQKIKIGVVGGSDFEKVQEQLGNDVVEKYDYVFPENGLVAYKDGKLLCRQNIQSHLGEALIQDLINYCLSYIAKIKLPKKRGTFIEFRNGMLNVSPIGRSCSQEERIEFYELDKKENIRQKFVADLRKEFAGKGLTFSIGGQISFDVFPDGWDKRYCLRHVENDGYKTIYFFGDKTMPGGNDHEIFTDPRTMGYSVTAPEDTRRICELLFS
Put plainly: Counter screen SAR assay for PMM2 inhibitors via a fluorescence intensity assay. [Related pubchem assays (depositor defined):AID1545, AID1574].

The target of the next data set is T7, CAAX prenyl protease 2 (Saccharomyces cerevisiae S288c, UniProt Q03530).
T7 sequence (Q03530 whole entry): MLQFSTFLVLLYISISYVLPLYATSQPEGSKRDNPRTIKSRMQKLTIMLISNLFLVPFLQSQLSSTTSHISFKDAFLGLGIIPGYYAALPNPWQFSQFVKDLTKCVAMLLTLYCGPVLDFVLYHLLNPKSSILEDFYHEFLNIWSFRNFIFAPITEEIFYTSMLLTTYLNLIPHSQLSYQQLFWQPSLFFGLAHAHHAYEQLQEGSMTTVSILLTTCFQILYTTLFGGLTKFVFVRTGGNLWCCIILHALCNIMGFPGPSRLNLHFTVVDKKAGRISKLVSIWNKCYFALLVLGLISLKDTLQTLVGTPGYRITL
It counts as biochemical.

The next data set has as its target Mu-type opioid receptor (Homo sapiens, UniProt P35372). Type of data set: functional, cell-based.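 Note: U2OS cells with beta-arrestin recruitment to OPRM1 by beta-gal complementation.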
In data set [8] the target is 5-hydroxytryptamine receptor 2A (Mus musculus, UniProt P35363). It counts as functional, cell-based.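 Note: CHO-K1 cells with tagged receptor and beta-arrestin; agonist potency measured as compound-induced activation of the receptor.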
For data set [9], the target named is Voltage-gated inwardly rectifying potassium channel KCNH2 (Homo sapiens, UniProt Q12809). Conditions: Potency.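 Note: confirmatory quantitative high-throughput screen measuring inhibition of hERG channel activity.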
The nature of data set [10]: Trypanosoma cruzi growth suppression in host cells – NIH3T3 host cells, beta-gal luminescence, confirmation (AID 2044).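 Note: intracellular parasites grown in NIH/3T3 mouse fibroblasts as host cells; luminescent beta-galactosidase reporter signal from transgenic T. cruzi replicating inside host cells; inhibitors lower the luminescence signal.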 It counts as functional, cell-based.
The nature of data set [11]: microbe, parasite or virus in culture. Type of data set: functional. The note with it: Mycobacterium tuberculosis.
A short description of data set [12]: NIH3T3 cell viability loss – ATP luminescence, mouse fibroblasts, counter-screen, dose response (AID 2010).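 Note: cells exposed to compound for about 90 hours before reading.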 Type of data set: functional, cell-based.

Chain of Cytochrome P450 2C9 (P11712 whole entry): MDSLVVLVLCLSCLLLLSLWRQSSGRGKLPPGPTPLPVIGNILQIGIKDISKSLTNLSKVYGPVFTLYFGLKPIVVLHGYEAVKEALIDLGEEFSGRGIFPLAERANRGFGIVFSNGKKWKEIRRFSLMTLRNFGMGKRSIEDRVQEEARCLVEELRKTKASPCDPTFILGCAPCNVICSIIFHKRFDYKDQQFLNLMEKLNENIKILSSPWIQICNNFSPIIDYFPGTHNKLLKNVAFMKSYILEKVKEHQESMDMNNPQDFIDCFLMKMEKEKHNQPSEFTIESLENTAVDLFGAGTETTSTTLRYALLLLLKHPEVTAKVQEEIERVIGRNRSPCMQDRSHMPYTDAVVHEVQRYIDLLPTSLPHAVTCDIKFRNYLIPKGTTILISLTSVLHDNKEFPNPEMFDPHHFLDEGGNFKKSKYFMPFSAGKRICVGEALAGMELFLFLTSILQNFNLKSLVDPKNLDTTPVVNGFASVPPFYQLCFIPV
Chain of Voltage-gated inwardly rectifying potassium channel KCNH2 (Q12809 whole entry): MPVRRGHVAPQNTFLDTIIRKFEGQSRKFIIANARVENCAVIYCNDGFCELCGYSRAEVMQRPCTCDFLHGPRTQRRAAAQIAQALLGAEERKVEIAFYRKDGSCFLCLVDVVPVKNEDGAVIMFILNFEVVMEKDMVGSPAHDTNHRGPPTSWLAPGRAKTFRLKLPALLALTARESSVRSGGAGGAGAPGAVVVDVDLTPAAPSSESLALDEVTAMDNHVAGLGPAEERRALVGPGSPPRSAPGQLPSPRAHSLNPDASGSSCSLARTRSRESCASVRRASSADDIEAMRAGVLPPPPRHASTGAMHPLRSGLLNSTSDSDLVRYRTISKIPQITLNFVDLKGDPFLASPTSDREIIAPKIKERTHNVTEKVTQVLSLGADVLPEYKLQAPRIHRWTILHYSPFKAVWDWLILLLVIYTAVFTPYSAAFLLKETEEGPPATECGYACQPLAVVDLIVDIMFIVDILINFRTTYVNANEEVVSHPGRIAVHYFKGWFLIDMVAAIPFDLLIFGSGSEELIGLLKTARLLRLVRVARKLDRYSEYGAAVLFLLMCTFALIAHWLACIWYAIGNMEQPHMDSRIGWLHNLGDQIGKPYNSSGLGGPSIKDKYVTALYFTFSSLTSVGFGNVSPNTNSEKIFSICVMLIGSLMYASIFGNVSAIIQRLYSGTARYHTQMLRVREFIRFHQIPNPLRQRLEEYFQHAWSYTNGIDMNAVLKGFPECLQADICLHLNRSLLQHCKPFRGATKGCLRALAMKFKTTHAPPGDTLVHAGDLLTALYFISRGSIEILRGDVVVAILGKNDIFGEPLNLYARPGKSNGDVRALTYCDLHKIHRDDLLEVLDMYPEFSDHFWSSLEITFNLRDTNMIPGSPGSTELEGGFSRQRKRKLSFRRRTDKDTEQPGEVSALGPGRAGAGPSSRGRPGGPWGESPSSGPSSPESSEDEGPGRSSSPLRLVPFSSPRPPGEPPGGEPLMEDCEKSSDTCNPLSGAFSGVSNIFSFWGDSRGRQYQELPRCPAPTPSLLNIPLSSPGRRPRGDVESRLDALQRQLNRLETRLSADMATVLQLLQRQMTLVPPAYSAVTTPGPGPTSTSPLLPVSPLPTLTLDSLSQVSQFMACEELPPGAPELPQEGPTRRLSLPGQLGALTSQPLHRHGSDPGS
Chain of Peroxisome proliferator-activated receptor gamma/Nuclear receptor coactivator 1 (P37231 whole entry): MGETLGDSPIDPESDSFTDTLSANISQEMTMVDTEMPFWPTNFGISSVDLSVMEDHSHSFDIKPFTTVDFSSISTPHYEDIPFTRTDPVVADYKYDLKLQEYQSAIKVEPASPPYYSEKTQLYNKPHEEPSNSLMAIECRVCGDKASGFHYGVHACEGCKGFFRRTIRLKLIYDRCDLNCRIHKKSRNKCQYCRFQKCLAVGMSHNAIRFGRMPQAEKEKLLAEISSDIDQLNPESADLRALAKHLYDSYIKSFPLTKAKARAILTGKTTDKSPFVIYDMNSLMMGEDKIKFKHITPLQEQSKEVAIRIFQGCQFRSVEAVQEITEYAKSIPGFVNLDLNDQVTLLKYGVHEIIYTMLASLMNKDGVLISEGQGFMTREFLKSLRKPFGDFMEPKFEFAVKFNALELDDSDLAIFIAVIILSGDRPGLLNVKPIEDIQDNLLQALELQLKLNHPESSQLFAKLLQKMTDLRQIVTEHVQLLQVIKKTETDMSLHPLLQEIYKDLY
Chain of Peroxisome proliferator-activated receptor gamma/Nuclear receptor coactivator 1 (Q15788 whole entry, further chain): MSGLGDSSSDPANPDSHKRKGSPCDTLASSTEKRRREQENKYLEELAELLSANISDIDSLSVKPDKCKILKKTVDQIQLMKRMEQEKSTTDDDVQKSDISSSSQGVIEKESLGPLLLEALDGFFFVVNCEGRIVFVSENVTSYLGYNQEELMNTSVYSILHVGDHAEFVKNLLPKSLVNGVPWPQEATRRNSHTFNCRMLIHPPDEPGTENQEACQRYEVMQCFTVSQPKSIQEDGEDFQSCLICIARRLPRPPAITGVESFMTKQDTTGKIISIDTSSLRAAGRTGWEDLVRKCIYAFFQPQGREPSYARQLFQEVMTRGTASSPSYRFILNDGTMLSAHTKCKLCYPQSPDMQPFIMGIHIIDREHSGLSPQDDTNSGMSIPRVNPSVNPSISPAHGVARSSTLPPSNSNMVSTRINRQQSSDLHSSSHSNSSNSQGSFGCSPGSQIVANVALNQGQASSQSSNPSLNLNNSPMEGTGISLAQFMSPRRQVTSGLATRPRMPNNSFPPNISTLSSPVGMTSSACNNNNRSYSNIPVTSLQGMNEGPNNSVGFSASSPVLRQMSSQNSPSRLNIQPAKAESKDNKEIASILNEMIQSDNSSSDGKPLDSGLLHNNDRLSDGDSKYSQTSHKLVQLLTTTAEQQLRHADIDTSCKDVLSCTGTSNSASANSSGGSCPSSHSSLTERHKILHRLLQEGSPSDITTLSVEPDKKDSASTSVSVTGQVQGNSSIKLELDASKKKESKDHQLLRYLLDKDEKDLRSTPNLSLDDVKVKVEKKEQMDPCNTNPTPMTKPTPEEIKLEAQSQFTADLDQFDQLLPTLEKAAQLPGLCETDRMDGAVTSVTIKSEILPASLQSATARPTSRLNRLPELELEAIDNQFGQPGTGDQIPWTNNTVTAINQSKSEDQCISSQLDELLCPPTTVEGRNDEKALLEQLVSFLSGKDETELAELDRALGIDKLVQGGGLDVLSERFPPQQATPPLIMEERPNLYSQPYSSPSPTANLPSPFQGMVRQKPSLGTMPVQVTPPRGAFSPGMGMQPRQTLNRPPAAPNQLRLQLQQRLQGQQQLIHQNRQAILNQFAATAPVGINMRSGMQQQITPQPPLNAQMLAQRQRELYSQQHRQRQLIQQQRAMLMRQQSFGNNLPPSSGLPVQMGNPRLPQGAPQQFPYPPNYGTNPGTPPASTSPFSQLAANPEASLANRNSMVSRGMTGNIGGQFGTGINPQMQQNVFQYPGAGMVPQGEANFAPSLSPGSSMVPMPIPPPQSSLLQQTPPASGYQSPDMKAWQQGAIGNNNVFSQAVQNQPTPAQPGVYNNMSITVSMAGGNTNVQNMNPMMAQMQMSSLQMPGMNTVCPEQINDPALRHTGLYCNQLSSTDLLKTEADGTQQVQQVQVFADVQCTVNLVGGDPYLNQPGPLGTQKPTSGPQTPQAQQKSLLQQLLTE
Chain of Mu-type opioid receptor (P35372 whole entry): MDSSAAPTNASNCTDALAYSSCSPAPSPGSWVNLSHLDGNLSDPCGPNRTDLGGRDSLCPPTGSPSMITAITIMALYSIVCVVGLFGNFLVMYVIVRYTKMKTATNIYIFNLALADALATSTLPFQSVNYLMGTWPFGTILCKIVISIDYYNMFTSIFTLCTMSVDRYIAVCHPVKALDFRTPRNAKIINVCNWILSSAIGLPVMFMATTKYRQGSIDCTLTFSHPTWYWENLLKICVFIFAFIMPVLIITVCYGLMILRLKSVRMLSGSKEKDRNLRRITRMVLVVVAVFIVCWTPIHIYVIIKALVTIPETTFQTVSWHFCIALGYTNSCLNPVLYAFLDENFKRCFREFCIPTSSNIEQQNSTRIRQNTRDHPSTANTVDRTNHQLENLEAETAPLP
Chain of 5-hydroxytryptamine receptor 2A (P35363 whole entry): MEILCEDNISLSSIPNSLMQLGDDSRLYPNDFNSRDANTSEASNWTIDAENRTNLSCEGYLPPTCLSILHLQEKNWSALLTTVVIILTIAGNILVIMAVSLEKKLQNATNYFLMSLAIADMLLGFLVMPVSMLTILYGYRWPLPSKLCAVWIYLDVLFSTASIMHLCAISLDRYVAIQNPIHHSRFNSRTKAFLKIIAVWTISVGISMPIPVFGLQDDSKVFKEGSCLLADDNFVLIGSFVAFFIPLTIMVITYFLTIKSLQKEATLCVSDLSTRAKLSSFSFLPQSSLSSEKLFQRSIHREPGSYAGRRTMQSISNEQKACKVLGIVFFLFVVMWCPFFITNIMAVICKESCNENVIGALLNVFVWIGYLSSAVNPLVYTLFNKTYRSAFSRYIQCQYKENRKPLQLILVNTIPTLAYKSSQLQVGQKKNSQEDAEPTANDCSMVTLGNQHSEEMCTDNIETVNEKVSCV

Take `O=C(NCC(=O)N1CCN(S(=O)(=O)/C=C/c2ccccc2)CC1)c1ccccc1F`: the IC50 on Coagulation factor XII is > 50 µM (inactive).
With `O=C1NC(=S)S/C1=C/c1ccc(Oc2cnccn2)cc1`, the AC50 in [1] is 2.81 µM (active).
Regarding `O=C(O)c1cccc(CN2CCCCC2)c1`, the AC50 entry at Cytochrome P450 2C9 is “inconclusive”.
Consider `C[C@@H](O)C1NC(=O)[C@H](CCCCN)NC(=O)c2cc([N+](=O)[O-])cc(F)c2NCCCC[C@@H](C(N)=O)NC1=O` (stereo partly drawn), for which the IC50 on Bcl-2-related protein A1 was > 20 µM (inactive); in data set [2], 14.2 µM (active); in data set [3], > 20 µM (inactive).
With `COc1ccc(/C=C(\C#N)C(N)=O)c(OC)c1`, the AC50 entry on Cytochrome P450 2C9 is recorded as “inconclusive”.
Take `CCCCCCC(=O)Nc1cc(Cl)ccc1C(=O)O`: the IC50 at Hexokinase is > 25 µM (inactive).
Take `CCN1CCN(C(=O)CSc2cc(=O)n(C)c3ccccc23)CC1`: the EC50 was > 79.4 µM (inactive) in data set [4], > 79.4 µM (not active) in data set [5] and > 79.4 µM (not active) in data set [6].
Take `CC(C)(C)c1ccc(C(=O)N2CCC(=O)c3ccc(Cl)cc32)cc1`: at Hexokinase, the IC50 was > 25 µM (inactive).
As for `CCN(CCCNC(=O)CSc1cc(=O)n(C)c2cc(Cl)ccc12)Cc1ccccc1`, the values for the EC50 in data set [4], in [5] and in data set [6] were > 79.4 µM (inactive), > 79.4 µM (not active) and > 79.4 µM (not active), respectively.
Turning to `Cc1ccc(C=Nn2c(-c3ccncc3)n[nH]c2=S)cc1`, the IC50 was 16.1 µM (active) in data set [7] and > 100 µM (inactive) at Phosphomannomutase 2.
In the case of `Cc1cccc(C(=O)NC(=S)N2CCN(C)CC2)c1`, at Cytochrome P450 2C9, the AC50 entry is recorded as “inconclusive”.
Regarding `Cc1cc(C)c2sc(N(CCCN(C)C)C(=O)c3ccc(S(=O)(=O)N(C)Cc4ccccc4)cc3)nc2c1`, the IC50 was > 20 µM (inactive) on Bcl-2-related protein A1, 4.77 µM (active) in data set [2] and 2.65 µM (active) in data set [3].
With `CC(=O)c1sc(N2CCOCC2)nc1-c1ccccc1`, the EC50 in [4] was > 26.5 µM (inactive); in data set [5], > 79.4 µM (not active); in data set [6], > 8.82 µM (not active).
In the case of `CN(C)S(=O)(=O)c1ccc(NC(=O)/C=C/c2ccccc2Cl)cc1`, the AC50 at CAAX prenyl protease 2 was 4.18 µM (active).
Consider `Cn1cc(C(F)(F)F)nc1-c1ccc(OCC(O)CNCCOc2ccc(O)c(C(N)=O)c2)cc1` (stereo not drawn), for which the EC50 on Mu-type opioid receptor was 92.4 µM (inactive); in data set [8], 0.0952 µM (active). Further, the AC50 in data set [9] is 25.1 µM (inconclusive).
As for `CCCCN(C)CCNC(=O)c1ccc(Cn2c(=S)[nH]c3ccc(Br)cc3c2=O)cc1`, the EC50 was 0.606 µM (active) in data set [10] and > 60 µM (not active) in data set [12]. Further, in [11], the CC50 was 19.1 µM (active). Further, the IC50 on Bcl-2-related protein A1 was > 20 µM (inactive); in [2], 19.5 µM (active); in [3], > 20 µM (inactive).
Turning to `CC1Cc2cc3c(cc2C(c2ccc(N)cc2)=NN1)OCO3` (stereo not drawn), the AC50 in [9] is 35.5 µM (inconclusive).
In the case of `CCC(C)NC(=O)CSc1nc2ccsc2c(=O)n1NC(=O)c1ccccc1` (stereo not drawn), on Coagulation factor XII, the IC50 is > 50 µM (inactive).
`O=C(Cn1sc2ccccc2c1=O)NCc1ccccc1`: on Hexokinase, the IC50 is 5.72 µM (active).
In the case of `NC(Cc1cccc(-c2ccccc2CP(=O)(O)O)c1)C(=O)O` (stereo not drawn), in data set [9], the AC50 was 35.5 µM (inconclusive).
